Results reported in patent US11066357B2, “Benzoannulene derivatives as antiviral agents” (Southern Research Institute, priority 2017, dated 2021).

Tests used:
[1] = cytotoxicity (CC50), Table 1
CHIKV = assay: antiviral activity (EC50), Table 1; type: cell-based; conditions: Chikungunya virus

SMILES	CC50 [1]	EC50 (CHIKV)
CC(C)(C)c1ccc(NC(=O)c2cc3c(cc2O)NCCCC3)cc1 [Compound 28, N-(4-(tert.-butyl)phenyl)-8-hydroxy-2,3,4,5-tetrahydro-1H-benzo[b]azepine-7-carboxamide]	> 40 µM	1.47 µM
CCc1cc2c(cc1C(=O)Nc1ccc(C(C)(C)C)cc1)CCCCC2 [Compound 22, N-(4-(tert.-butyl)phenyl)-3-ethyl-6,7,8,9-tetrahydro-5H-benzo[7]annulene-2-carboxamide]	> 40 µM	> 40 µM
COc1cc2c(cc1C(=O)Nc1cc(C)n(C(C)(C)C)n1)CCCCC2 [Compound 4, N-(1-(tert.-butyl)-5-methyl-1H-pyrazol-3-yl)-3-methoxy-6,7,8,9-tetrahydro-5H-benzo[7]annulene-2-carboxamide]	22.3 µM	3.9 µM
CCn1nc(C(F)(F)F)c(NC(=O)c2cc3c(cc2OC)CCCCC3)c1C [Compound 6, N-(1-ethyl-5-methyl-3-(trifluoromethyl)-1H-pyrazol-4-yl)-3-methoxy-6,7,8,9-tetrahydro-5H-benzo[7]annulene-2-carboxamide]	> 40 µM	35.2 µM
CC(C)(C)c1ccc(NC(=O)c2cc3c(cc2O)CCCCC3)nc1 [Compound 23, N-(5-(tert.-butyl)pyridin-2-yl)-3-hydroxy-6,7,8,9-tetrahydro-5H-benzo[7]annulene-2-carboxamide]	> 40 µM	3.8 µM
CC(C)(C)c1ccc(NC(=O)c2cc3c(cc2O)CCCCC3)cc1 [Compound 2, N-(4-(tert.-butyl)phenyl)-3-hydroxy-6,7,8,9-tetrahydro-5H-benzo[7]annulene-2-carboxamide]	9.8 µM	1.1 µM
CCn1ccc(NC(=O)c2cc3c(cc2OC)CCCCC3)n1 [Compound 35, N-(1-ethyl-1H-pyrazol-3-yl)-3-methoxy-6,7,8,9-tetrahydro-5H-benzo[7]annulene-2-carboxamide]	> 40 µM	17.4 µM
COc1cc2c(cc1C(=O)Nc1cnc(C(C)(C)C)s1)CCCCC2 [Compound 9, N-(2-(tert.-butyl)thiazol-5-yl)-3-methoxy-6,7,8,9-tetrahydro-5H-benzo[7]annulene-2-carboxamide]	> 40 µM	> 40 µM
COc1nc2c(cc1C(=O)Nc1ncc(C(C)(C)C)cn1)CCCCC2 [Compound 38, N-(5-(tert.-butyl)pyrimidin-2-yl)-2-methoxy-6,7,8,9-tetrahydro-5H-cyclohepta[b]pyridine-3-carboxamide]	> 40 µM	19.4 µM
CCn1nc(NC(=O)c2cc3c(cc2O)CCCCC3)cc1C [Compound 27, N-(1-ethyl-5-methyl-1H-pyrazol-3-yl)-3-hydroxy-6,7,8,9-tetrahydro-5H-benzo[7]annulene-2-carboxamide]	> 40 µM	> 40 µM
CCn1nc(NC(=O)c2cc3c(nc2OC)CCCCC3)cc1C [Compound 39, N-(1-ethyl-5-methyl-1H-pyrazol-3-yl)-2-methoxy-6,7,8,9-tetrahydro-5H-cyclohepta[b]pyridine-3-carboxamide]	> 40 µM	30.7 µM
COc1cc2c(cc1C(=O)NCc1ccc(C(C)(C)C)cc1)CCCCC2 [Compound 18, N-(4-(tert.-butyl)benzyl)-3-methoxy-6,7,8,9-tetrahydro-5H-benzo[7]annulene-2-carboxamide]	> 40 µM	3.5 µM
COc1nc2c(cc1C(=O)Nc1ccc(C(C)(C)C(=O)O)cc1)CCCCC2 [Compound 40, 2-(4-(2-methoxy-6,7,8,9-tetrahydro-5H-cyclohepta[b]pyridine-3-carboxamido)phenyl)-2-methylpropanoic acid]	> 40 µM	> 40 µM
COc1cc2c(cc1C(=O)Nc1ccc(OC(F)(F)F)cc1)CCCCC2 [Compound 14, 3-methoxy-N-(4-(trifluoromethoxy)phenyl)-6,7,8,9-tetrahydro-5H-benzo[7]annulene-2-carboxamide]	> 40 µM	> 40 µM
CC(C)(C)c1ccc(NC(=O)c2cc3c(cc2OC(F)F)CCCCC3)cc1 [Compound 17, N-(4-(tert.-butyl)phenyl)-3-(difluoromethoxy)-6,7,8,9-tetrahydro-5H-benzo[7]annulene-2-carboxamide]	> 40 µM	> 40 µM
COc1cc2c(cc1C(=O)Nc1ccc(C(C)(C)O)cc1)CCCCC2 [Compound 10, N-(4-(2-hydroxypropan-2-yl)phenyl)-3-methoxy-6,7,8,9-tetrahydro-5H-benzo[7]annulene-2-carboxamide]	24.9 µM	1.8 µM
COc1cc2c(cc1C(=O)Nc1ncc(C(C)(C)C)s1)CCCCC2 [Compound 8, N-(5-(tert.-butyl)thiazol-2-yl)-3-methoxy-6,7,8,9-tetrahydro-5H-benzo[7]annulene-2-carboxamide]	> 40 µM	9.63 µM
COc1cc2c(cc1C(=O)Nc1ccc(C(C)(C)C)cn1)CCCCC2 [Compound 11, N-(5-(tert.-butyl)pyridin-2-yl)-3-methoxy-6,7,8,9-tetrahydro-5H-benzo[7]annulene-2-carboxamide]	> 40 µM	1.14 µM

SMILES	CC50 [1]	EC50 (CHIKV)
COc1cc2c(cc1C(=O)Nc1ccc(C(C)(C)C)s1)CCCCC2 [Compound 7, N-(5-(tert.-butyl)thiophen-2-yl)-3-methoxy-6,7,8,9-tetrahydro-5H-benzo[7]annulene-2-carboxamide]	> 40 µM	> 40 µM
COc1cc2c(cc1C(=O)Nc1cc(C(C)(C)C)[nH]n1)CCCCC2 [Compound 26, N-(5-(tert.-butyl)-1H-pyrazol-3-yl)-3-methoxy-6,7,8,9-tetrahydro-5H-benzo[7]annulene-2-carboxamide]	15.5 µM	7.03 µM
COc1cc2c(cc1C(=O)Nc1ccc(-c3ccccc3)cc1)CCCCC2 [Compound 15, N-([1,1′-biphenyl]-4-yl)-3-methoxy-6,7,8,9-tetrahydro-5H-benzo[7]annulene-2-carboxamide]	> 40 µM	> 40 µM
COc1nc2c(cc1C(=O)Nc1ccc(C(C)(C)C)cc1)CCCCC2 [Compound 36, N-(4-(tert.-butyl)phenyl)-2-methoxy-6,7,8,9-tetrahydro-5H-cyclohepta[b]pyridine-3-carboxamide]	> 40 µM	1.71 µM
COc1cc2c(cc1C(=O)Nc1sc(C(C)(C)C)cc1C#N)CCCCC2 [Compound 13, N-(5-(tert.-butyl)-3-cyanothiophen-2-yl)-3-methoxy-6,7,8,9-tetrahydro-5H-benzo[7]annulene-2-carboxamide]	> 40 µM	> 40 µM
COc1cc2c(cc1C(=O)Nc1ccc(-c3cc[nH]n3)cc1)CCCCC2 [Compound 19, N-(4-(1H-pyrazol-3-yl)phenyl)-3-methoxy-6,7,8,9-tetrahydro-5H-benzo[7]annulene-2-carboxamide]	23.2 µM	3.65 µM
COc1nc2c(cc1C(=O)Nc1ccc(C(C)(C)C)cn1)CCCCC2 [Compound 37, N-(5-(tert.-butyl)pyridin-2-yl)-2-methoxy-6,7,8,9-tetrahydro-5H-cyclohepta[b]pyridine-3-carboxamide]	> 40 µM	13.6 µM
CCOc1cc2c(cc1C(=O)Nc1ccc(C(C)(C)C)cc1)CCCCC2 [Compound 21, N-(4-(tert.-butyl)phenyl)-3-ethoxy-6,7,8,9-tetrahydro-5H-benzo[7]annulene-2-carboxamide]	> 40 µM	29.9 µM
COc1cc2c(cc1C(=O)Nc1ccc(-c3ccccc3)cn1)CCCCC2 [Compound 16, 3-methoxy-N-(5-phenylpyridin-2-yl)-6,7,8,9-tetrahydro-5H-benzo[7]annulene-2-carboxamide]	> 40 µM	> 40 µM
CC(C)(C)c1ccc(NC(=O)c2ccc3c(c2)CCCCC3)cc1 [Compound 3, N-(4-(tert.-butyl)phenyl)-6,7,8,9-tetrahydro-5H-benzo[7]annulene-2-carboxamide]	> 40 µM	1.09 µM
COc1cc2c(cc1C(=O)Nc1ccc(C(C)(C)C)cc1)CCCCN2 [Compound 29, N-(4-(tert.-butyl)phenyl)-8-methoxy-2,3,4,5-tetrahydro-1H-benzo[b]azepine-7-carboxamide]	> 40 µM	24.4 µM
CCn1nc(NC(=O)c2cc3c(cc2OC)CCCCC3)cc1C [Compound 5, N-(1-ethyl-5-methyl-1H-pyrazol-3-yl)-3-methoxy-6,7,8,9-tetrahydro-5H-benzo[7]annulene-2-carboxamide]	> 40 µM	9.9 µM
COc1cc2c(cc1C(=O)Nc1ccc(C(C)(C)C#N)cc1)CCCCC2 [Compound 24, N-(4-(2-cyanopropan-2-yl)phenyl)-3-methoxy-6,7,8,9-tetrahydro-5H-benzo[7]annulene-2-carboxamide]	> 40 µM	0.2 µM
COc1cc2c(cc1C(=O)Nc1ccc(C(O)(C(F)(F)F)C(F)(F)F)cc1)CCCCC2 [Compound 12, N-(4-(1,1,1,3,3,3-hexafluoro-2-hydroxypropan-2-yl)phenyl)-3-methoxy-6,7,8,9-tetrahydro-5H-benzo[7]annulene-2-carboxamide]	> 40 µM	> 40 µM
COc1cc2c(cc1C(=O)Nc1cc(-c3ccccc3)[nH]n1)CCCCC2 [Compound 25, 3-methoxy-N-(5-phenyl-1H-pyrazol-3-yl)-6,7,8,9-tetrahydro-5H-benzo[7]annulene-2-carboxamide]	> 40 µM	> 40 µM
COc1cc2c(cc1C(=O)NNc1ccc(C(C)(C)C)cc1)CCCCC2 [Compound 30]	> 40 µM	> 40 µM
COc1cc2c(cc1CC(=O)Nc1ccc(C(C)(C)C)cc1)CCCCC2 [Compound 31, N-(4-(tert.-butyl)phenyl)-2-(3-methoxy-6,7,8,9-tetrahydro-5H-benzo[7]annulen-2-yl)acetamide]	> 40 µM	30.4 µM
COc1cc2c(cc1C(=O)Nc1ccc(N3CCCS3(=O)=O)cc1)CCCCC2 [Compound 20, N-(4-(1,1-dioxidoisothiazolidin-2-yl)phenyl)-3-methoxy-6,7,8,9-tetrahydro-5H-benzo[7]annulene-2-carboxamide]	> 40 µM	> 5 µM
